# Laboratory results published in publication PMC10592247 (Molecular cancer therapeutics, 2023).
# Tests used:
# 22Rv1 cells = assay: Dextran uptake assay; type: cell-based; conditions: 2µM for 30min before assay, TMR-dextran 1 mg/mL 30min
# LNCaP-abl cells = assay: Cell viability after pre-incubation with endocytosis pathway inhibitors; type: cell-based; conditions: EIPA 50µM 30min, then compound 10µM, PrestoBlue after 3 days, n=2
Compound,macropinocytosis (TMR-dextran uptake) (22Rv1 cells),antiproliferative activity after EIPA pre-incubation (LNCaP-abl cells)
"CC(C)(C)C(=O)Nc1ccc2c(c1)C(=O)C(=O)c1ccccc1-2 [SF16170, SF1670]",enhanced macropinocytosis,
"CNC(=O)c1ccc(N2C(=S)N(c3ccc(C#N)c(C(F)(F)F)c3)C(=O)C2(C)C)cc1F [enzalutamide, Enzalutamide]",,did not affect
"C#C[C@]1(O)CC[C@H]2[C@@H]3CCC4=CC(=O)CC[C@]4(C)[C@H]3CC[C@@]21C [ethisterone, Ethisterone]",,did not affect
